Test results taken from PubChem BioAssay AID2060898 (Molecular Pharmacology Branch, DTP, NCI, 2025).
pIC50: −log10 of the molar value.

System: 616215-338-R-J1-PDC complex spheroid viability
Assay: Anticancer human tumor 616215-338-R-J1-PDC patient-derived colon adenocarcinoma cell line growth inhibition [RAS]
Details: for pIC50: curve of first compound; for viability, T/C: stronger effect = lower value; active = viability on the fitted dose curve at most 10% of control; inactive = the rest
In short: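 Tumour cells grown as complex spheroids with HUVEC endothelial cells and mesenchymal stem cells, treated with RAS pathway inhibitor combinations. Each agent spans half-log steps from near clinical Cmax, or 10 microM where Cmax is unknown.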

[1] = second compound 0.000949 µM, first compound 0.0316 µM
[2] = second compound 0.000949 µM, first compound 0.1 µM
[3] = second compound 0.000949 µM, first compound 0.316 µM
[4] = second compound 0.000949 µM, first compound 1 µM
[5] = second compound 0.000949 µM, first compound 3.16 µM
[6] = second compound 0.000949 µM, first compound 10 µM
[7] = second compound 0.003 µM, first compound 0.0316 µM
[8] = second compound 0.003 µM, first compound 0.1 µM
[9] = second compound 0.003 µM, first compound 0.316 µM
[10] = second compound 0.003 µM, first compound 1 µM
[11] = second compound 0.003 µM, first compound 3.16 µM
[12] = second compound 0.003 µM, first compound 10 µM
[13] = second compound 0.00949 µM, first compound 0.0316 µM
[14] = second compound 0.00949 µM, first compound 0.1 µM
[15] = second compound 0.00949 µM, first compound 0.316 µM
[16] = second compound 0.00949 µM, first compound 1 µM
[17] = second compound 0.00949 µM, first compound 3.16 µM
[18] = second compound 0.00949 µM, first compound 10 µM
[19] = second compound 0.03 µM, first compound 0.0316 µM
[20] = second compound 0.03 µM, first compound 0.1 µM
[21] = second compound 0.03 µM, first compound 0.316 µM
[22] = second compound 0.03 µM, first compound 1 µM
[23] = second compound 0.03 µM, first compound 3.16 µM
[24] = second compound 0.03 µM, first compound 10 µM
[25] = second compound 0.0949 µM, first compound 0.0316 µM
[26] = second compound 0.0949 µM, first compound 0.1 µM
[27] = second compound 0.0949 µM, first compound 0.316 µM
[28] = second compound 0.0949 µM, first compound 1 µM
[29] = second compound 0.0949 µM, first compound 3.16 µM
[30] = second compound 0.0949 µM, first compound 10 µM
[31] = second compound 0.3 µM, first compound 0.0316 µM
[32] = second compound 0.3 µM, first compound 0.1 µM
[33] = second compound 0.3 µM, first compound 0.316 µM
[34] = second compound 0.3 µM, first compound 1 µM
[35] = second compound 0.3 µM, first compound 3.16 µM
[36] = second compound 0.3 µM, first compound 10 µM
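Also: spheroids exposed to agents for seven days before viability readout.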
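For viability, T/C in this document: 100% = DMSO vehicle control viability.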

CC1(O)CCCC1n1c(=O)c(C(F)F)cc2cnc(NC3CCN(S(C)(=O)=O)CC3)nc21 (stereo unspecified) + CCn1c(-c2cc(N3CCN(C)CC3)cnc2C(C)OC)c2c3cc(ccc31)-c1csc(n1)CC(NC(=O)C1CC1C)C(=O)N1CCCC(N1)C(=O)OCC(C)(C)C2
inactive: viability, T/C [1] 122% | viability, T/C [2] 111% | viability, T/C [3] 54.4% | viability, T/C [4] 47.8% | viability, T/C [5] 46.6% | viability, T/C [7] 113% | viability, T/C [8] 65.1% | viability, T/C [9] 30.5% | viability, T/C [10] 36.8% | viability, T/C [11] 38.9% | viability, T/C [12] 4.05% | viability, T/C [13] 49.9% | viability, T/C [14] 51.1% | viability, T/C [15] 29.7% | viability, T/C [16] 23.9% | viability, T/C [17] 31.9% | viability, T/C [19] 47.4% | viability, T/C [20] 28% | viability, T/C [21] 22.7% | viability, T/C [22] 22.2% | viability, T/C [23] 36.3% | viability, T/C [24] 2.37% | viability, T/C [25] 35% | viability, T/C [26] 27.4% | viability, T/C [27] 21.3% | viability, T/C [28] 22.1% | viability, T/C [29] 28.7% | viability, T/C [30] 2.08% | viability, T/C [31] 31% | viability, T/C [32] 32% | viability, T/C [33] 16.4% | viability, T/C [34] 30.3% | viability, T/C [35] 29.7% | viability, T/C [36] 4.15%
active: viability, T/C [6] 2% | viability, T/C [18] 2.73%
6.70: pIC50 (second compound 0.003 µM)
7.43: pIC50 (second compound 0.00949 µM)
5.95: pIC50 (second compound 0.000949 µM)
> 7.50: pIC50 (second compound 0.03 µM) | pIC50 (second compound 0.0949 µM) | pIC50 (second compound 0.3 µM)

CCN1CCN(Cc2ccc(Nc3ncc(F)c(-c4cc(F)c5nc(C)n(C(C)C)c5c4)n3)nc2)CC1 + CCn1c(-c2cc(N3CCN(C)CC3)cnc2C(C)OC)c2c3cc(ccc31)-c1csc(n1)CC(NC(=O)C1CC1C)C(=O)N1CCCC(N1)C(=O)OCC(C)(C)C2
6.16: pIC50 (second compound 0.003 µM)
inactive: viability, T/C (second compound 0.000949 µM, first compound 0.00316 µM) 102% | viability, T/C (second compound 0.000949 µM, first compound 0.01 µM) 108% | viability, T/C [1] 110% | viability, T/C [2] 123% | viability, T/C [3] 130% | viability, T/C [4] 57.2% | viability, T/C (second compound 0.003 µM, first compound 0.00316 µM) 104% | viability, T/C (second compound 0.003 µM, first compound 0.01 µM) 112% | viability, T/C [7] 111% | viability, T/C [8] 120% | viability, T/C [9] 75.3% | viability, T/C [10] 38.4% | viability, T/C (second compound 0.00949 µM, first compound 0.00316 µM) 82.2% | viability, T/C (second compound 0.00949 µM, first compound 0.01 µM) 64% | viability, T/C [13] 59.9% | viability, T/C [14] 51.3% | viability, T/C [15] 49.5% | viability, T/C [16] 26.6% | viability, T/C (second compound 0.03 µM, first compound 0.00316 µM) 51% | viability, T/C (second compound 0.03 µM, first compound 0.01 µM) 38.1% | viability, T/C [19] 39.4% | viability, T/C [20] 32.5% | viability, T/C [21] 33.4% | viability, T/C [22] 27.5% | viability, T/C (second compound 0.0949 µM, first compound 0.00316 µM) 33.2% | viability, T/C (second compound 0.0949 µM, first compound 0.01 µM) 32.3% | viability, T/C [25] 26.7% | viability, T/C [26] 25.8% | viability, T/C [27] 34.5% | viability, T/C [28] 29.8% | viability, T/C (second compound 0.3 µM, first compound 0.00316 µM) 34.5% | viability, T/C (second compound 0.3 µM, first compound 0.01 µM) 32.2% | viability, T/C [31] 30.3% | viability, T/C [32] 33.1% | viability, T/C [33] 35.9% | viability, T/C [34] 25.3%
6.95: pIC50 (second compound 0.00949 µM)
< 6.00: pIC50 (second compound 0.000949 µM)
> 8.50: pIC50 (second compound 0.03 µM) | pIC50 (second compound 0.0949 µM) | pIC50 (second compound 0.3 µM)

C[C@@H](NC(=O)c1ncnc(N)c1Cl)c1ncc(C(=O)Nc2cc(C(F)(F)F)c(Cl)cn2)s1 + CCn1c(-c2cc(N3CCN(C)CC3)cnc2C(C)OC)c2c3cc(ccc31)-c1csc(n1)CC(NC(=O)C1CC1C)C(=O)N1CCCC(N1)C(=O)OCC(C)(C)C2
> 7.50: pIC50 (second compound 0.0949 µM) | pIC50 (second compound 0.3 µM)
6.61: pIC50 (second compound 0.03 µM)
5.16: pIC50 (second compound 0.003 µM)
inactive: viability, T/C [1] 102% | viability, T/C [2] 104% | viability, T/C [3] 117% | viability, T/C [4] 105% | viability, T/C [5] 96.3% | viability, T/C [6] 43.9% | viability, T/C [7] 114% | viability, T/C [8] 129% | viability, T/C [9] 102% | viability, T/C [10] 87.2% | viability, T/C [11] 66.2% | viability, T/C [12] 42.6% | viability, T/C [13] 95.3% | viability, T/C [14] 78% | viability, T/C [15] 72.5% | viability, T/C [16] 61% | viability, T/C [17] 35.8% | viability, T/C [18] 21.4% | viability, T/C [19] 58.9% | viability, T/C [20] 62.2% | viability, T/C [21] 42.3% | viability, T/C [22] 41.1% | viability, T/C [23] 30% | viability, T/C [24] 25.1% | viability, T/C [25] 41.9% | viability, T/C [26] 57.1% | viability, T/C [27] 38.5% | viability, T/C [28] 33.2% | viability, T/C [29] 23.2% | viability, T/C [30] 16.6% | viability, T/C [31] 36.3% | viability, T/C [32] 35.6% | viability, T/C [33] 39% | viability, T/C [34] 33.7% | viability, T/C [35] 22.6% | viability, T/C [36] 13.2%
5.80: pIC50 (second compound 0.00949 µM)
5.06: pIC50 (second compound 0.000949 µM)
